Patent publication US9045472B2, “Imidazoquinoline compounds” (ASTRAZENECA AB, priority 2010, dated 2015)

How the values were obtained:
[1] = Cynomolgous monkey plasma stability; assay type: in vitro ADME; details: 37° C., 1 μM final incubation concentration, parent compound by LC-MS-MS
Method: Cynomolgous Monkey Plasma Stability
(§1) To determine the half life of the test compound in cynomolgous monkey plasma, incubations were performed at 37° C. in a shaking water bath. The test compound (5 μL of a 100 μM stock in MeCN) was spiked into 0.495 mL plasma to give a final incubation concentration of 1 μM. Aliquots (50 μL) were withdrawn at various time points (typically 0, 20 and 40 sec, 1, 2, 3, 5 and 10 mins) and quenched into MeCN (300 μL) followed by analysis for parent compound by LC-MS-MS (MRM mode). The half life was calculated from the decline of test compound peak area over time

[2] = Gravimetric Vapour Sorption (GVS); assay type: physicochemical
Method: Gravimetric Vapour Sorption (GVS) profiles were measured using a TA Instruments Q5000SA instrument. Approximately 1 mg to 5 mg of the solid sample was placed into a metal vessel, and the weight of the sample was recorded during a dual cycle step method (40 to 90 to 0 to 90 to 0% relative humidity (RH), in steps of 10% RH).

human TLR7 = molecular target: T1, human TLR7 (Homo sapiens, UniProt Q9NYK1); experiment: Human TLR7 assay (SEAP reporter in HEK293 cells); assay type: cell-based; details: HEK293 cell line expressing recombinant human TLR7 and pNiFty2-SEAP reporter; overnight incubation at 37° C., 0.1% DMSO; read-out: mean pEC50 (concentration producing half of the maximal level of SEAP induction) (converted)
T1 construct: expressed in transfected cells; host or cells: HEK293 cell line stably expressing the pNiFty2-SEAP reporter plasmid; TLR7 in pUNO vector, blasticidin selection
T1 sequence (Q9NYK1 27-1049): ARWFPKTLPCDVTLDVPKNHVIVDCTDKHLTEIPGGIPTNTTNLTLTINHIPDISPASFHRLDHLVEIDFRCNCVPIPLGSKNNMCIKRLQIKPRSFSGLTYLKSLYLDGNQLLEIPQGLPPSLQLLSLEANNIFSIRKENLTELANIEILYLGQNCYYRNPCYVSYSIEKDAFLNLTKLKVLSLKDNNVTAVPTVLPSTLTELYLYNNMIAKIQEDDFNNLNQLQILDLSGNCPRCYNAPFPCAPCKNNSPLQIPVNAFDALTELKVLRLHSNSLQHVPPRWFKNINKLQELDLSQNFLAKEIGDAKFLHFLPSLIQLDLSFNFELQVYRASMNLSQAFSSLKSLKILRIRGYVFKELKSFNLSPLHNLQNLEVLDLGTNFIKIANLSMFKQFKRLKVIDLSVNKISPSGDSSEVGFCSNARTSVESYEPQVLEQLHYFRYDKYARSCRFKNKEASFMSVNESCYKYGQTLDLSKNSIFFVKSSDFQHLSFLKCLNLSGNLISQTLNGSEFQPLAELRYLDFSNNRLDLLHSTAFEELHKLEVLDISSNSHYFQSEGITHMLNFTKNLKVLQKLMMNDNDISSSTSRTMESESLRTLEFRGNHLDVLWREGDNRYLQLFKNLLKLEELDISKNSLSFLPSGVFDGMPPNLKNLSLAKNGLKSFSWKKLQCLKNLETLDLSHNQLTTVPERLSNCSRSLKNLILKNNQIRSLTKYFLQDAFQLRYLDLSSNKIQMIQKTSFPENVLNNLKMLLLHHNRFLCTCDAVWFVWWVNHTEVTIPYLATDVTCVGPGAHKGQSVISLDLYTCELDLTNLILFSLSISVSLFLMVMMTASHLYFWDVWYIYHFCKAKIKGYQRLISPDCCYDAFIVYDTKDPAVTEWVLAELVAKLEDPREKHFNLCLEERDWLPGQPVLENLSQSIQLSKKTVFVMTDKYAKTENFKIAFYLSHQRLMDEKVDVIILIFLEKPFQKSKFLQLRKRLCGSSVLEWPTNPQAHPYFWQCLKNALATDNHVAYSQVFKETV
Text: Recombinant human TLR7 was stably expressed in a HEK293 cell line already stably expressing the pNiFty2-SEAP reporter plasmid; integration of the reporter gene was maintained by selection with the antibiotic zeocin. The most common variant sequence of human TLR7 (represented by the EMBL sequence AF240467) was cloned into the mammalian cell expression vector pUNO and transfected into this reporter cell-line. Transfectants with stable expression were selected using the antibiotic blasticidin. In this reporter cell-line, expression of secreted alkaline phosphatase (SEAP) was controlled by an NFkB/ELAM-1 composite promoter comprising five NFkB sites combined with the proximal ELAM-1 promoter. TLR signaling leads to the translocation of NFkB and activation of the promoter results in expression of the SEAP gene. TLR7-specific activation was assessed by determining the level of SEAP produced following overnight incubation of the cells at 37° C. with the test compound prepared above in the presence of 0.1% (v/v) dimethylsulfoxide (DMSO). Concentration dependent induction of SEAP production by compounds was expressed as the concentration of compound which produced half of the maximal level of SEAP induction for that compound (pEC50).

Human plasma stability = assay type: in vitro ADME; details: 37° C., 1 μM final incubation concentration, parent compound by LC-MS-MS
Method: as §1, with “in human” for “in cynomolgous monkey”, “bath. Compound” for “bath. The test compound”, “over time.” for “over time”

Row | half-life at 1 μM [1] [s] | mass increase at 80% relative humidity, cycle 1 ([2]; cycle 1) [%] | mass increase at 80% relative humidity, cycle 2 ([2]; cycle 2) [%] | EC50 (human TLR7) [nM] | half-life at 1 μM (Human plasma stability) [s] | SMILES
1 | 72 | 0.5 | 0.64 | 39.8 | 18 | CCOCc1nc2c(N)nc3ccccc3c2n1CCCCN(Cc1cccc(CC(=O)OC)c1)C(=O)CN(CC)CC [Compound (I), Methyl (3-{[{4-[4-amino-2-(ethoxymethyl)-1H-imidazo[4,5-c]quinolin-1-yl]butyl}(N,N-diethylglycyl)amino]methyl}phenyl)acetate]
2 | 660 | – | – | – | 42 | CCOCc1nc2c(N)nc3ccccc3c2n1CCCN(Cc1cccc(CC(=O)OC)c1)C(=O)CN(C)C [Comparative Example 1, Methyl 2-(3-((N-(3-(4-amino-2-(ethoxymethyl)-1H-imidazo[4,5-c]quinolin-yl)propyl)-2-(dimethylamino)acetamido)methyl)phenyl)acetate, reference compound]
